Several values for one entry are separate records, joined by “and”; a condition that tells them apart may be missing. Equal entries are not always repeated. Entries after “also recorded” stand apart in the source; their conditions may differ. No end group written: not given here.

In one series the test system is 9 L glioblastoma. The conditions noted are these: for lympho-mononuclear inflammatory cell infiltrates in brain: histopathology, day 20. The procedure: Rat 9 L glioblastoma cells were obtained from the American Type Culture Collection (Washington, D.C.) and certified as pathogen-free. The cells were maintained in Dulbecco's Modified Eagle's Medium (DMEM) supplemented with 5% fetal calf serum (FCS) and 2 mM glutamine. Antibiotics were not added to the medium. Prior to injection, the cells were rinsed with phosphate-buffered saline (PBS), detached from the culture surfaces and dissociated into single cell suspensions with 0.25% trypsin/0.05% EDTA. The dissociated cells were washed 3 times in serum-free DMEM and finally suspended in serum-free DMEM at a density of 5×10^6 viable cells/ml. Viable cell density was determined using Trypan blue exclusion and a hemocytometer chamber.
An in vivo model of glioblastoma was generated in adult (250-300 grams) Long Evans rats. Rats were anesthetized with a single intraperitoneal injection of a cocktail containing 100 mg/kg ketamine and […] in 50% ethanol. After anesthetization, the head was shaved and prepped with povidone iodine, and the rat was placed in a stereotactic headframe. A midline incision was made and a 3 mm burr hole was drilled over the frontal lobe, and 2 μl of 9 L glioma cell suspension (10,000 cells total) was injected directly into the brain using a Hamilton syringe with attached 26-gauge needle placed at a depth of 3.5 mm. After removal of the needle, the wound was washed with sterile saline, the animal was removed from the frame and the skin was closed with resorbable sutures. The rats were returned to their cages and observed for any signs of deterioration including weight loss, reduced food and water intake, hemiparesis, seizures, or inactivity. If any degree of suffering was observed, the animals were euthanized with 120 mg/kg sodium pentobarbital. Animals were observed daily and weighed weekly.
The tumor was allowed to develop for 5 days, followed by anti-neoplastic treatment. Rats were divided into 6 treatment groups: vehicle control; low (45 μg/kg) thymalfasin; high (200 μg/kg) thymalfasin; low thymalfasin+BCNU; high thymalfasin+BCNC; and BCNU (9.4 mg/kg) only. BCNU was administered as a single intraperitoneal (I.P.) injection on day 6 after the intracerebral tumor inoculation. Rats treated with thymalfasin were given single I.P. injections of thymalfasin for 3 consecutive days, beginning on day 6 after tumor cell inoculation. Rats were sacrificed on day 20 post tumor inoculation. The rats were killed by I.P. injection of 120 mg/kg sodium pentobarbital. The brains were harvested, sectioned, immersion fixed in Histochoice (Amresco Co., Solon, Ohio), and processed for paraffin embedding. Tumor burden was assessed from the gross tissue blocks and the histological sections stained with hematoxylin and eosin. Histological sections were also used in immunohistochemical staining studies to detect inflammatory cell infiltrates.
A semiquantitative histological grading scale was used to assess tumor burden for inter-group comparisons: 0—cure, no residual tumor; 1—microscopic tumor (<1 mm) confined to the superficial cortex; 2—tumor mass occupying less than 25% of the hemisphere cross section (1-2 mm); 3—tumor mass occupying up to 50% of the hemisphere cross section (2-3 mm) and extending into deep structures; 4—massive tumor burden with involvement of 50-90% of the hemisphere cross section, with herniation. The sections were coded and graded simultaneously by two separate individuals without knowledge of treatment group. […]

Series [1] concerns 9 L glioblastoma cells. In words: H2O2-induced oxidative stress sensitivity of thymalfasin-treated 9 L cells (MTT). Format: cell-based, rat. How it is done: H2O2 was used with cells to induce oxidative stress. […] In the experiments in which serially diluted amounts of thymalfasin were administered to the cells, a constant amount of the […] H2O2 was used to treat the cells. For 9 L cells, an H2O2 curve was developed in order to determine the correct H2O2 concentration with which to treat the cells.
(§1) MTT assays were conducted on 9 L and 293 cell lines to determine the effects of thymalfasin treatment and/or H2O2-induced oxidative stress on the mitochondrial function of the cells. After treatment, 10 μl of MTT solution were added to each well containing 100 μl of medium. The plates were incubated with the MTT dye in the 37° C. incubator for 15 min-1 hour, depending on the cell type. The medium was then removed, and 200 μl of acidic Isopropanol was added to each well. The plates were shaken at room temperature until cell lysis occurred, and then read in a Packard SpectraCount™ machine at 540 nm.
Validation of the ability of thymalfasin to increase the susceptibility of 9 L and 293 cells to apoptosis was sought testing H2O2-induced oxidative stress. As determined through MTT assays, 9 L cells treated with thymalfasin for 24 hours and subsequently H2O2 for 24 hours did indeed show significant loss in viability in comparison to 9 L cells treated only with H2O2 for 24 hours (FIG. 3).

Series [2] deals with Primary neuronal cortical cells. In words: Cell viability of primary cortical neuron cultures (CV and MTT). It counts as cell-based. From the text: Primary cortical neuron cultures were studied to enable selection of thymalfasin doses that would not be toxic to non-neoplastic brain cells.
However, this dose is higher than established experimental and clinical dosages.

Series [3] deals with Rat 9 L glioblastoma cells. In words: Crystal violet (CV) cell viability assay in thymalfasin-treated 9 L cells. Format: cell-based. Conditions: thymalfasin vs vehicle-treated control. The procedure:
(§2) All cell lines were kept at 37° C. in a humidified atmosphere containing 5% CO2. The cell lines were obtained from the American Type Culture Collection and were certified as free of pathogens.
(§3) Thymosin alpha 1 treatment: For acute thymalfasin treatment, cells seeded in 96-well plates at a cell density of 20,000 cells/well were treated with 10^−5 M thymalfasin for 24 hours. Cells treated chronically with thymalfasin were grown in flasks and treated every 24 hours with 10^−5 M thymalfasin (added to fresh medium) for the duration of the treatment (3 days). In addition, for the determination of a dose-response curve to thymalfasin for 9 L cells, cells were treated with serially diluted amounts of thymalfasin, yielding thymalfasin concentrations ranging from 50 µM to […].
Crystal Violet (CV) was also used to stain cells in 96-well plates. After discarding the medium, 20 μl of crystal violet was added to each well and shaken at room temperature for 10 minutes. The plates were then washed several times with warm water and dried. 100-200 μl (depending on cell density) of PBS w/1% SDS was added to each well. The plates were incubated at room temperature on a shaker until the cells were sufficiently lysed. The plates were read at 540 nm to detect differences in cell viability between the various groups tested.

Series [4] deals with 9 L glioblastoma cells. In words: Microtiter immunocytochemical ELISA (MICE) assay of pro-apoptosis/survival gene products, 9 L cells. Format: cell-based, rat. The procedure: (§4) Microtiter Immunocytochemical ELISA (MICE) Assays (de la Monte, 1999) were done on 9 L and 293 cells. Cells were seeded in 96-well plates, treated with 10^−5M thymalfasin for 24 hours, and histofixed overnight prior to analysis using MICE assay. the fixed cells were permeabilized with 0.05% saponin in Tris-buffered saline (50 mM Tris, pH 7.5, 0.9% NaCl; TBS), blocked with Superblock-TBS (Pierce, Rockford, Ill.), and then incubated overnight at 4° C. with primary antibodies to proliferating cell nuclear antigen (PCNA), bcl-2, p21/Wwaf-1, p53, FasL, FasR, TNF-R1, or GAPDH, each diluted to 0.5-1 μg/ml in TBS containing 0.05% Tween-20 and 0.5% bovine serum albumin (TBST-BSA). Immunoreactivity was detected using horseradish peroxidase conjugated secondary antibody (Pierce, Rockford, Ill.) and the TMB soluble substrate (Pierce, Rockford, Ill.). Reactions were stopped by the addition of 1 M H2SO4 and absorbances were measured at 450 nm in a Spectracount microplate reader (Packard Instrument Co., Meriden, Conn.). Subsequently, cell density was measured by staining the adherent cells with Coomassie blue dye and measuring the absorbance of the eluted dye (de la Monte, 1999). The MICE index was the calculated ratio of TMB and Coomassie blue absorbance measured in the same culture well. Mean±S.D. of results obtained from 16 replicate culture wells were used for inter-group statistical comparisons.
(§5) In this regard, the expression of gene products that promote either apoptosis or cell survival were examined, using housekeeping gene expression as control. The studies were performed in 96-well plates using the microtiter immunocytochemical ELISA […] assay to generate data from multiple replicate cultures. […] Thus, the results of the MICE assays indicate that for the two cell lines, thymalfasin works via different pathways to increase the susceptibility of the cells to cell death by apoptosis.

Series [5] relates to 9 L glioblastoma cells. In words: Streptolysin O + recombinant Granzyme B killing assay (ATPlite viability). Format: cell-based, rat. The conditions noted are these: thymalfasin 24 h (acute) or 72 h (chronic), then SLO+Granzyme B 1 or 3 hours, p<0.001. How it is done: In order to determine the differential susceptibility of 9 L glioblastoma cells treated (or not) with thymalfasin to cytotoxic T-lymphocyte (CTL) induced apoptosis, experimental assays were conducted in which 9 L cells were treated both acutely for 24 hours and chronically for 72 hours with thymalfasin, after which they were harvested, re-seeded into 96-well black plates (7.5×10^5 cells/75 μl/well), and exposed to 20,000 units/ml Streptolysin O (SLO) plus 100 ng recombinant Granzyme B (reaction volume 100 μl) for 1 or 3 hours at 37° C. The SLO was used in place of perforin to permeabilize the cells, and recombinant Granzyme B was used to standardize the assay. Control studies included parallel reactions in which SLO, Granzyme B, or both were omitted. Viable cell density was measured using the ATPlite assay (Packard Instrument Company, Meriden, Conn.) which has a broad linear dynamic range correlating relative light units with cell densities between 10^3 to 10^6 cells per culture well.
In vivo, malignant neoplastic cells are killed by cytotoxic T cells and macrophages that are recruited by pro-inflammatory cytokines such as IL-2 and IL-12. […] Viability was measured using the ATP luminescence assay and within group comparisons were made to determine the relative killing associated with SLO+Granzyme B treatment. […]

In the next series the test system is 293 human kidney cells. In words: Microtiter immunocytochemical ELISA (MICE) assay of pro-apoptosis/survival gene products, 293 cells. Format: cell-based. The procedure:
as §4, §5
On the technique in general: In an ELISA, binding on a coated surface is turned into a signal by an enzyme label.

In series [6] the test system is Rat 9 L glioblastoma cells. In words: MTT assay of mitochondrial function in thymalfasin-treated 9 L cells. Conditions: 24 hours, various concentrations of thymalfasin, vs vehicle. It counts as cell-based. The procedure:
as §2, §3, §1

For series [7], the system named is 9 L glioblastoma cells. In words: BCNU-mediated killing of thymalfasin-treated 9 L cells. The conditions noted are these: 24 or 72 hours thymalfasin treatment. Format: cell-based, rat.
For series [8] the following is noted: cited from earlier work.
[9] abbreviates: 10^-5 M thymalfasin, 24 hours, P<0.01.

For `O=NN(CCCl)C(=O)NCCCl` [BCNU, bischloroethyl nitrosurea], in the series with 9 L glioblastoma (BCNU 9.4 mg/kg I.P. single dose, nearly half the group showed no response), the “reduction of tumor burden in responding animals” value was “up to 50%”. The “lympho-mononuclear inflammatory cell infiltrates in brain” value in the series on 9 L glioblastoma is given as “scant”.
Regarding “Thymosin α-1 (SDAAVDTSSEITTKDLKEKKEVVEEAEN; ends and bridges not checked; UniProt P06454 2-29, looked up) [thymalfasin, 28-amino acid peptide, a synthetic form of a naturally occurring compound that is found in circulation]”, the “decrease in mitochondrial functioning (MTT) vs cells treated only with H2O2” value with 9 L glioblastoma cells [1] (9 L cells, thymalfasin 24 hours then 270 μM H2O2 24 hours) turned out to be 26.6%. Besides, in the series on 9 L glioblastoma cells [1] (24 or 72 hours thymalfasin treatment), the “9 L cells killed by ordinarily non-lethal (sub-lethal) H2O2 after thymalfasin treatment” value was 25% and 30-50%. In addition, the “decrease in viability (MTT) of primary neuronal cortical cells” value in [2] (highest concentration of thymalfasin used (3.3×10^−7M as printed)) is 30%. The “cell viability of primary neuronal cortical cells” value in [2] (serial dilutions, 3.3×10^−5 M to 1×10^−9 M, experimental doses) is “no decrease in cell viability”. Also, the “cell viability / direct cytotoxic effect” value in series [3] is on record as “minimal effect; also recorded: no significant direct cytotoxic effects; also recorded: no direct effect”. In addition, in the series with 9 L glioblastoma cells [4] (setting [9]), the “increase in FasL level relative to vehicle-treated controls” value was 65.89%, the “increase in FasR level relative to vehicle-treated controls” value turned out to be 44.08% and the “increase in TNF-R1 level relative to vehicle-treated controls” value came to 22.18%. In the series with 9 L glioblastoma cells [4] (thymalfasin 24 hours), the GAPDH expression level result is given as “not significantly affected” and the bcl-2 expression level entry is “not significantly affected”. Further, the “tumor burden / tumor growth” value with 9 L glioblastoma (Long Evans rats, 10,000 9 L cells intracerebral, I.P. treatment from day 6, sacrifice day 20, BCNU 9.4 mg/kg, thymalfasin 45 or 200 μg/kg) is “the same as control or worse”. For the same molecule, the “lympho-mononuclear inflammatory cell infiltrates in brain” value in the series on 9 L glioblastoma is “conspicuous”. The “intracerebral swelling and herniation” value in the series on 9 L glioblastoma (rat, in vivo) is “extreme intracerebral swelling”. Further, the “cell viability after SLO+Granzyme B relative to SLO, Granzyme B or vehicle alone” value in the series on 9 L glioblastoma cells [5] is “significant reductions in cell viability”. In the series with 293 human kidney cells (data not shown), the “change in FasL expression” value is recorded as “no significant changes”, the “change in FasR expression” value is on record as “no significant changes” and the “change in TNF-R1 expression” value is on record as “no significant changes”. Further, the “reduction in bcl-2” value in the series with 293 human kidney cells (thymalfasin, P<0.01, data not shown) was 36.67%. Also, the “cell mitochondrial functioning (MTT)” value in [6] is “minimal effect; also recorded: insignificant decrease; also recorded: no direct effect”. The “9 L cells killed by sub-lethal concentrations of BCNU after thymalfasin treatment” value in the series with 9 L glioblastoma cells [7] is reported as 40%. For the same molecule, the “dose found to be safe for humans” value in series [8] is listed as ≤ 16 mg/kg body weight/day.

The values are drawn from patent publication US20060166870A1, “Treatment of glioblastoma with thymosin-alpha 1” (Rhode Island Hospital, priority 2001, published 2006).
